Experimental data from patent US11214803B2, “Modulators of YAP1 expression” (Ionis Pharmaceuticals, Inc., priority 2019, dated 2022).
Strand notation (5' to 3'): a small letter for the sugar, then the base; units joined by * are phosphorothioate-linked, units joined directly phosphodiester-linked; [ ] holds rarer units or linkages, { } end groups; capitals alone tell only the bases. k = constrained ethyl (cEt); [5mC] = 5-methylcytosine; d = 2'-deoxy (DNA)

test system: Yap1 mRNA; experiment: Antisense inhibition of human Yap1 in A-431 cells by cEt gapmers, single dose (Example 2, RTS4814); format: cell-based; settings: A-431 cells, 5,000 cells per well, free uptake, 2,000 nM modified oligonucleotide, approx. 48 hours, RTS4814, normalized to RIBOGREEN; Table 4; asterisk (*) = targets amplicon region of primer probe set
Method in brief: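 Read-out is Yap1 mRNA as percent of untreated cells, by real-time RT-PCR (probe set RTS4814) normalized to total RNA via RIBOGREEN. Cells were A-431 dosed with 2,000 nM gapmer without transfection for approximately 48 hours.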

First: 716550 (kG*k[5mC]*kA*d[5mC]*dT*dG*dA*dA*dT*dA*dT*dT*dG*k[5mC]*k[5mC]*kA; antisense) [Compound 716550]
Second: 716433 (kA*kG*k[5mC]*dA*dT*d[5mC]*dT*dG*dA*d[5mC]*dT*dT*d[5mC]*kT*kA*kA; antisense) [Compound 716433]
The “YAP1 (% UTC)” value of the first is higher: 77 % UTC for the first, 20 % UTC for the second.

Going from “716436 (kA*k[5mC]*kT*dG*dG*dA*d[5mC]*dA*dA*dA*dG*dG*dA*kA*kG*k[5mC]; antisense) [Compound 716436]” to “716505 (antisense kG*kA*kT*dT*dT*dA*dA*dT*d[5mC]*dT*dT*dT*d[5mC]*kT*kG*k[5mC]) [Compound 716505]”, the “YAP1 (% UTC)” value falls from 59 % UTC to 35 % UTC.

same assay, conditions: Table 5; A-431 cells, 5,000 cells per well, free uptake, 2,000 nM modified oligonucleotide, approx. 48 hours; RTS4814; normalized to RIBOGREEN; Yap1 mRNA relative to untreated control cells

Compared with “716365 (kT*k[5mC]*kT*dG*dA*dT*dG*d[5mC]*d[5mC]*d[5mC]*dG*dG*d[5mC]*kG*kG*kG; antisense) [Compound 716365]”, “716461 (kA*kT*kA*dA*dA*d[5mC]*dT*dA*d[5mC]*dT*dA*dG*dT*k[5mC]*kA*kT; antisense) [Compound 716461]” is higher in “YAP1 (% UTC)” value: 83 % UTC for the first, 123 % UTC for the second.

Going from “716515 (antisense kT*kA*kA*dG*d[5mC]*dT*dA*dA*dA*dG*d[5mC]*dT*dA*kA*kT*k[5mC]) [Compound 716515]” to “716455 (kG*kT*kT*dA*dT*dG*dT*dT*dT*dG*dG*dG*dT*kG*kT*kG; antisense) [Compound 716455]”, the “YAP1 (% UTC)” value falls from 123 % UTC to 17 % UTC.

same assay, conditions: Table 6; A-431 cells, 5,000 cells per well, free uptake, 2,000 nM modified oligonucleotide, approx. 48 hours; RTS4814; normalized to RIBOGREEN; Yap1 mRNA relative to untreated control cells

Going from “716450 (kA*kA*k[5mC]*dA*dG*dA*dT*dT*d[5mC]*dA*d[5mC]*dT*dA*kA*kT*kA; antisense) [Compound 716450]” to “716534 (antisense kG*kA*kT*dT*dA*dT*dA*dA*dA*dA*dT*dT*dG*kG*kT*kT) [Compound 716534]”, the “YAP1 (% UTC)” value rises from 83 % UTC to 90 % UTC.

“716546 (k[5mC]*kA*k[5mC]*dA*dA*dT*dT*dA*dA*dT*dT*dA*d[5mC]*kT*kG*kT; antisense) [Compound 716546]” was tested, and the “YAP1 (% UTC)” value was 103 % UTC.

same assay, conditions: Table 18; A-431 cells, 5,000 cells per well, free uptake, 2,000 nM modified oligonucleotide, approx. 48 hours; RTS4814; normalized to RIBOGREEN; Yap1 mRNA as percent of untreated control

First: 1074596 (antisense kT*kT*k[5mC]*dT*dA*dT*d[5mC]*d[5mC]*dA*dG*dG*dG*dT*k[5mC]*kA*kA) [Compound 1074596]
Second: 1075492 (antisense kG*k[5mC]*kT*dA*dA*dA*dA*dT*dG*dA*dT*dA*d[5mC]*kT*kT*k[5mC]) [Compound 1075492]
The “YAP1 (% UTC)” value of the first is lower: 12 % UTC for the first, 29 % UTC for the second.

In the case of “1074820 (kA*kA*kG*dT*dG*dT*dT*dA*dA*dG*d[5mC]*dA*d[5mC]*kT*kG*kA; antisense) [Compound 1074820]”, the “YAP1 (% UTC)” value is reported as 85 % UTC.

same assay, conditions: Table 19; A-431 cells, 5,000 cells per well, free uptake, 2,000 nM modified oligonucleotide, approx. 48 hours; RTS4814; normalized to RIBOGREEN; Yap1 mRNA as percent of untreated control

First: 1075557 (kT*kA*kT*dT*dA*dA*dG*dG*dT*dG*dG*d[5mC]*dT*kT*kA*k[5mC]; antisense) [Compound 1075557]
Second: 1076037 (k[5mC]*kT*kT*dA*dA*dA*dT*dT*d[5mC]*dT*d[5mC]*dT*dT*kA*k[5mC]*kG; antisense) [Compound 1076037]
The “YAP1 (% UTC)” value of the first is higher: 57 % UTC for the first, 21 % UTC for the second.

In the case of “1076229 (kA*kA*kT*dT*dA*dA*d[5mC]*d[5mC]*dT*d[5mC]*dA*dG*dT*kG*kA*kG; antisense) [Compound 1076229]”, the “YAP1 (% UTC)” value is reported as 91 % UTC.

same assay, conditions: Table 20; Yap1 mRNA, percent of untreated control; 3-10-3 cEt gapmers targeting SEQ ID NO.: 1 and 2

Going from “1075238 (antisense k[5mC]*kT*kT*dA*dA*dA*d[5mC]*dA*dG*dG*dT*dG*d[5mC]*k[5mC]*kA*kA) [Compound 1075238]” to “1074694 (antisense k[5mC]*k[5mC]*k[5mC]*d[5mC]*d[5mC]*d[5mC]*d[5mC]*d[5mC]*d[5mC]*dA*dA*dA*d[5mC]*kT*kT*kT) [Compound 1074694]”, the “YAP1 (% UTC)” value rises from 24 % UTC to 79 % UTC.

First: 1074342 (antisense k[5mC]*kA*kT*d[5mC]*d[5mC]*d[5mC]*dG*dG*dG*dA*dG*dA*dA*kG*kA*k[5mC]) [Compound 1074342]
Second: 1074374 (antisense kT*kG*k[5mC]*dT*dT*dT*dG*dG*dT*dT*dG*dA*dT*kA*kG*kT) [Compound 1074374]
The “YAP1 (% UTC)” value of the first is higher: 56 % UTC for the first, 13 % UTC for the second.

For “1076294 (kT*kA*kT*dA*dT*dT*dA*dG*dT*dG*d[5mC]*d[5mC]*d[5mC]*k[5mC]*k[5mC]*kT; antisense) [Compound 1076294]”, the “YAP1 (% UTC)” value was 6 % UTC.

same assay, conditions: Table 21; Yap1 mRNA, percent of untreated control; 3-10-3 cEt gapmers targeting SEQ ID NO.: 1 and 2

Going from “1075047 (antisense kT*kA*kA*dA*dA*dT*dT*dA*dG*dA*d[5mC]*dT*d[5mC]*k[5mC]*k[5mC]*k[5mC]) [Compound 1075047]” to “1076455 (antisense kA*k[5mC]*kT*dA*dA*dA*dT*dA*d[5mC]*dT*dT*dT*dT*kA*kG*k[5mC]) [Compound 1076455]”, the “YAP1 (% UTC)” value rises from 7 % UTC to 86 % UTC.

same assay, conditions: Table 22; Yap1 mRNA as percent of untreated control; 3-10-3 cEt gapmers; single dose

First: 1074760 (kA*k[5mC]*kA*dA*d[5mC]*d[5mC]*dA*dA*dG*dA*dA*dG*d[5mC]*kA*kG*kT; antisense) [Compound 1074760]
Second: 1075432 (antisense k[5mC]*kT*kA*dA*d[5mC]*dT*dA*dA*dA*d[5mC]*dT*dG*dA*kT*kT*k[5mC]) [Compound 1075432]
The “YAP1 (% UTC)” value of the first is lower: 11 % UTC for the first, 121 % UTC for the second.

same assay, conditions: Table 23; Yap1 mRNA as percent of untreated control; 3-10-3 cEt gapmers; single dose

Going from “1075401 (antisense k[5mC]*kG*kA*dT*dT*dA*dA*dA*dA*d[5mC]*dA*d[5mC]*dT*kG*kG*kT) [Compound 1075401]” to “1076361 (kT*kG*kG*dG*dA*dA*dA*dA*dG*d[5mC]*dT*dA*d[5mC]*k[5mC]*kA*k[5mC]; antisense) [Compound 1076361]”, the “YAP1 (% UTC)” value rises from 3 % UTC to 87 % UTC.

same assay, conditions: Table 24; Yap1 mRNA as percent of untreated control; 3-10-3 cEt gapmers targeting SEQ ID NO.: 1, and 2

Compared with “1075882 (kG*kA*kA*dA*dA*dT*d[5mC]*d[5mC]*dT*dG*dA*dT*dT*kA*kA*k[5mC]; antisense) [Compound 1075882]”, “1074890 (antisense kG*kA*kA*dG*dT*dT*dT*dA*dG*d[5mC]*d[5mC]*dT*dG*kA*kA*kG) [Compound 1074890]” is lower in “YAP1 (% UTC)” value: 73 % UTC for the first, 58 % UTC for the second.

For “1074538 (antisense kA*kT*k[5mC]*d[5mC]*dA*d[5mC]*dA*dG*dT*dA*dA*dT*dA*kG*k[5mC]*kT) [Compound 1074538]”, the “YAP1 (% UTC)” value was 31 % UTC.

same assay, conditions: Table 25; Yap1 mRNA as percent of untreated control; 3-10-3 cEt gapmers targeting SEQ ID NO.: 1, and 2

First: 1075019 (antisense k[5mC]*kA*kT*dT*dA*dG*dA*dG*dT*dT*dT*dG*dA*kT*kT*kA) [Compound 1075019]
Second: 1075627 (kA*kT*kA*dA*dG*dA*dT*dA*dG*dT*d[5mC]*dG*dG*kT*kT*k[5mC]; antisense) [Compound 1075627]
The “YAP1 (% UTC)” value of the first is higher: 64 % UTC for the first, 19 % UTC for the second.

First: 1074635 (antisense kT*k[5mC]*k[5mC]*d[5mC]*dA*dA*dG*d[5mC]*dT*dG*dA*dG*dG*k[5mC]*kT*kT) [Compound 1074635]
Second: 1074443 (kT*k[5mC]*kA*dG*dA*d[5mC]*d[5mC]*dA*dG*dT*dA*dA*dA*kT*k[5mC]*kA; antisense) [Compound 1074443]
The “YAP1 (% UTC)” value of the first is higher: 31 % UTC for the first, 7 % UTC for the second.

same assay, conditions: Table 32; Yap1 mRNA, percent of untreated control; 3-10-3 cEt gapmers targeting SEQ ID NO.: 1, and 2

First: 1075250 (kA*kA*kT*dT*dA*d[5mC]*dG*dA*dT*dT*dA*dG*dA*kT*k[5mC]*kA; antisense) [compound 1075250]
Second: 1075378 (antisense kA*kA*kA*dA*d[5mC]*dT*dA*dA*dT*d[5mC]*dA*dT*d[5mC]*kG*kA*kT) [compound 1075378]
The “YAP1 (% UTC)” value of the first is lower: 55 % UTC for the first, 83 % UTC for the second.

Compared with “1075090 (kG*k[5mC]*kT*dT*dA*dT*dA*dA*dT*d[5mC]*dT*dT*dT*k[5mC]*kA*kG; antisense) [compound 1075090]”, “1074802 (kG*kG*k[5mC]*dA*d[5mC]*dT*dA*d[5mC]*dA*dT*dT*dT*dA*kG*kA*kA; antisense) [compound 1074802]” is higher in “YAP1 (% UTC)” value: 9 % UTC for the first, 37 % UTC for the second.

With “1075730 (kG*kT*kA*dT*dT*dT*dA*dA*dA*dA*dA*dT*dA*kG*k[5mC]*kG; antisense) [compound 1075730]” the “YAP1 (% UTC)” value was 92 % UTC.

same assay, conditions: Table 33; Yap1 mRNA, percent of untreated control; 3-10-3 cEt gapmers targeting SEQ ID NO.: 1, and 2

In the case of “1075411 (antisense k[5mC]*kA*kA*dA*dA*dA*dG*dG*dG*dT*dA*dA*dG*kG*k[5mC]*kA) [compound 1075411]”, the “YAP1 (% UTC)” value is reported as 39 % UTC.

same assay, conditions: Yap1 mRNA as percent of untreated control; A-431 cells; 3-10-3 cEt gapmers targeting SEQ ID NO.: 1, and 2; Table 30

Compared with “1075216 (kT*kA*kT*dT*dT*dT*dA*d[5mC]*dA*d[5mC]*dG*dA*dA*k[5mC]*kT*kA; antisense) [compound 1075216]”, “1075408 (antisense k[5mC]*kT*kA*dA*dA*dA*dT*dG*dG*d[5mC]*dA*dT*dA*kA*kG*kG) [compound 1075408]” is lower in “YAP1 (% UTC)” value: 55 % UTC for the first, 23 % UTC for the second.

With “1075152 (kT*kA*kT*dA*dA*dT*dG*dG*dG*dA*dG*dG*dA*kT*kT*kA; antisense) [compound 1075152]” the “YAP1 (% UTC)” value was 99 % UTC.

same assay, conditions: Yap1 mRNA as percent of untreated control; A-431 cells; 3-10-3 cEt gapmers targeting SEQ ID NO.: 1, and 2; Table 31

Going from “1074257 (antisense kG*k[5mC]*kA*d[5mC]*dT*dG*dG*dT*dG*dG*dA*d[5mC]*dT*kG*kG*kT) [compound 1074257]” to “1075825 (k[5mC]*k[5mC]*k[5mC]*d[5mC]*dT*dA*dA*dA*dG*dA*dA*dG*dA*kT*kT*kT; antisense) [compound 1075825]”, the “YAP1 (% UTC)” value rises from 29 % UTC to 44 % UTC.
